From ChEMBL document CHEMBL4477199, “Design and synthesis of novel bicalutamide and enzalutamide derivatives as antiproliferative agents for the treatment of prostate cancer” (Eur J Med Chem, 2016) come the findings set out here.

In general, IC50 refers to the midpoint of a concentration-inhibition curve. Low values mean greater potency, high ones weaker potency.

One data set concerns CWR22R. Put plainly: Antiproliferative activity against human 22Rv1 cells after 96 hrs by propidium iodide staining based fluorescence 2D monolayer assay. The following applies: 22Rv1, 96 h. The format is functional, cell-based.
A further data set concerns DU-145. The experiment in a line: Antiproliferative activity against human DU145 cells after 96 hrs by propidium iodide staining based fluorescence 2D monolayer assay. The following applies: DU-145, 96 h. The format is functional, cell-based.
The next data set deals with LNCaP. Put plainly: Antiproliferative activity against human LNCAP cells after 96 hrs by propidium iodide staining based fluorescence 2D monolayer assay. In kind it is functional, cell-based.
Another data set deals with VCaP. The experiment in a line: Antiproliferative activity against human VCaP cells after 96 hrs by propidium iodide staining based fluorescence 2D monolayer assay. The format is functional, cell-based.
For data set [1] the following is noted: 96 h.
Description: Solubility in RPMI1640 culture medium at <30 uM incubated for 4 days by microscopic analysis
For data set [2] the following is noted: 33000 µM.
Description: Solubility in 100% DMSO at 33 mM at -20 degC

For the compound `CC(O)(COc1ccc(F)cc1F)C(=O)Nc1ccc([N+](=O)[O-])c(C(F)(F)F)c1` (stereo unspecified), the IC50 in the data set on CWR22R is 20.2 µM; in the data set on DU-145 it was 22.4 µM; in the data set with LNCaP, 10.1 µM; in the data set on VCaP, 20.9 µM. Besides, the solubility result in data set [1] and in data set [2] was “Soluble” throughout.

`C[C@](O)(CSc1ccccc1C(F)(F)F)C(=O)Nc1ccc(C#N)c(C(F)(F)F)c1`: the half-maximal inhibitory concentration (IC50) in the data set with CWR22R worked out at 5.3 µM; with DU-145, 7.69 µM; in the data set on LNCaP, 7.9 µM; in the data set on VCaP, 2.95 µM.

`CC(O)(CS(=O)(=O)c1ccccc1C(F)(F)F)C(=O)Nc1ccc(C#N)c(C(F)(F)F)c1` (stereo unspecified): the IC50 in the data set with CWR22R stood at 46.6 µM; in the data set with DU-145, 55 µM; in the data set with LNCaP it was 42.7 µM; in the data set on VCaP, 58.6 µM. Also, the solubility result in data set [1] and in data set [2] was “Soluble” throughout.

On to `CC1(C)C(=O)N(c2cccc(C(F)(F)F)c2)C(=O)N1c1ccccc1C(F)(F)F`, for which the IC50 with CWR22R came out at 100 µM; in the data set on DU-145, 100 µM; in the data set on LNCaP it was 28.3 µM; with VCaP, 100 µM. For the same compound, the solubility result in data set [1] and in data set [2] was “Soluble” each time.

As to `CC(O)(CSc1ccc(C(F)(F)F)cc1)C(=O)Nc1ccc(C#N)c(C(F)(F)F)c1` (stereo unspecified), the solubility entry in data set [1] and in data set [2] was “Soluble” in each case.

In the case of `CC(O)(CSc1cccc(C(F)(F)F)c1)C(=O)Nc1ccc(C(F)(F)F)cc1` (stereo unspecified), the IC50 was found to be 18.6 µM in the data set on CWR22R, 30.7 µM in the data set with DU-145, 22.6 µM with LNCaP and 19.5 µM with VCaP. Further, the solubility entry in data set [1] and in data set [2] was “Soluble” each time.

As to `CC(O)(COc1cccc(OC(F)(F)F)c1)C(=O)Nc1ccc(C#N)cc1C(F)(F)F` (stereo unspecified), the IC50 in the data set with CWR22R was 28.7 µM; with DU-145, 35.9 µM; with LNCaP, 63.4 µM; with VCaP, 56.3 µM. Further, the solubility result in data set [1] and in data set [2] was “Soluble” each time.

For `CC(O)(CS(=O)(=O)c1ccc(F)cc1)C(=O)Nc1ccc([N+](=O)[O-])cc1C(F)(F)F` (stereo unspecified), the concentration for half-maximal inhibition (IC50) was 46.7 µM with CWR22R, 60.7 µM in the data set with DU-145, 38.6 µM in the data set on LNCaP and 58.2 µM with VCaP. Besides, the solubility entry in data set [1] and in data set [2] was “Soluble” throughout.

Regarding `CC1(C)C(=O)N(c2cccc(C(F)(F)F)c2)C(=O)N1c1ccc(C(F)(F)F)cc1`, the IC50 was determined as 92.5 µM in the data set with CWR22R, 100 µM in the data set with DU-145, 16.6 µM in the data set with LNCaP and 100 µM in the data set with VCaP. The solubility result in data set [1] and in data set [2] was “Soluble” throughout.

With `CC(O)(CSc1cccc(OC(F)(F)F)c1)C(=O)Nc1ccc([N+](=O)[O-])cc1C(F)(F)F` (stereo unspecified), the half-maximal inhibitory concentration (IC50) in the data set on CWR22R stood at 15.8 µM; in the data set on DU-145, 21.6 µM; in the data set with LNCaP, 9.15 µM; in the data set on VCaP it was 15.9 µM. The solubility entry in data set [1] and in data set [2] was “Soluble” in each case.

For the compound `CC(O)(COc1ccc(C(F)(F)F)cc1)C(=O)Nc1ccc([N+](=O)[O-])c(C(F)(F)F)c1` (stereo unspecified), the concentration for half-maximal inhibition (IC50) with CWR22R turned out to be 16.2 µM; in the data set on DU-145, 25.9 µM; with LNCaP, 17.2 µM; with VCaP it was 10.9 µM. The solubility entry in data set [1] and in data set [2] was “Soluble” each time.

With `CC(O)(CS(=O)(=O)c1ccc(OC(F)(F)F)cc1)C(=O)Nc1ccc(C#N)c(C(F)(F)F)c1` (stereo unspecified), the concentration for half-maximal inhibition (IC50) in the data set with CWR22R was 17 µM; in the data set with DU-145 it was 27.3 µM; in the data set with LNCaP it was 31.6 µM; in the data set on VCaP, 32.8 µM. The solubility entry in data set [1] and in data set [2] was “Soluble” each time.

Regarding `CC(O)(COc1ccccc1C(F)(F)F)C(=O)Nc1ccc(C#N)cc1C(F)(F)F` (stereo unspecified), the half-inhibitory concentration (IC50) with CWR22R worked out at 19.6 µM; in the data set on DU-145, 33.2 µM; with LNCaP, 14 µM; in the data set with VCaP, 21.9 µM. Further, the solubility result in data set [1] and in data set [2] was “Soluble” each time.

As for `CC(O)(CSc1ccc(OC(F)(F)F)cc1)C(=O)Nc1ccc(C#N)c(C(F)(F)F)c1` (stereo unspecified), the IC50 in the data set on CWR22R stood at 46.6 µM; in the data set on DU-145, 64 µM; in the data set on LNCaP, 42.8 µM; in the data set on VCaP it was 40.3 µM. Further, the solubility entry in data set [1] and in data set [2] was “Soluble” each time.

As for `CC(O)(COc1ccc(C#N)c(F)c1)C(=O)Nc1ccc(C#N)cc1C(F)(F)F` (stereo unspecified), the half-maximal inhibitory concentration (IC50) with CWR22R is 45.3 µM; with DU-145 it was 68.8 µM; in the data set on LNCaP, 78.3 µM; in the data set on VCaP, 77.2 µM. Also, the solubility entry in data set [1] and in data set [2] was “Soluble” in each case.

Turning to `CC(O)(COc1cccc(C(F)(F)F)c1)C(=O)Nc1ccc([N+](=O)[O-])c(C(F)(F)F)c1` (stereo unspecified), the IC50 with CWR22R stood at 8.58 µM; with DU-145, 10 µM; in the data set with LNCaP, 9.91 µM; in the data set on VCaP, 10.3 µM. The solubility result in data set [1] and in data set [2] was “Soluble” each time.

As to `CC1(C)C(=O)N(c2cccc(C(F)(F)F)c2)C(=O)N1c1ccc(C#N)cc1C(F)(F)F`, the IC50 with CWR22R was determined as 59.3 µM; with DU-145 it was 100 µM; with LNCaP it was 18.3 µM; with VCaP, 100 µM. Besides, the solubility result in data set [1] and in data set [2] was “Soluble” in each case.

For the compound `CC(O)(CS(=O)(=O)c1cccc(C(F)(F)F)c1)C(=O)Nc1ccc(C#N)cc1C(F)(F)F` (stereo unspecified), the IC50 in the data set with CWR22R was 34.4 µM; in the data set with DU-145 it was 45.9 µM; with LNCaP it was 32.1 µM; in the data set with VCaP it was 44.9 µM. Moreover, the solubility entry in data set [1] and in data set [2] was “Soluble” each time.

With `CC(O)(COc1cccc(C(F)(F)F)c1)C(=O)Nc1ccc(C#N)c(C(F)(F)F)c1` (stereo unspecified), the half-inhibitory concentration (IC50) in the data set with CWR22R worked out at 5.89 µM; with DU-145, 10.8 µM; with LNCaP, 8.31 µM; in the data set with VCaP, 9.04 µM. Besides, the solubility result in data set [1] and in data set [2] was “Soluble” each time.

For `CC(O)(COc1ccc(C(F)(F)F)cc1)C(=O)Nc1ccc(C#N)cc1C(F)(F)F` (stereo unspecified), the IC50 in the data set with CWR22R was determined as 29.9 µM; in the data set with DU-145, 32.4 µM; in the data set with LNCaP, 28.6 µM; in the data set on VCaP, 23 µM. In addition, the solubility entry in data set [1] and in data set [2] was “Soluble” throughout.

As for `CC(O)(CS(=O)(=O)c1cccc(C(F)(F)F)c1)C(=O)Nc1ccc([N+](=O)[O-])cc1C(F)(F)F` (stereo unspecified), the IC50 with CWR22R was determined as 18.1 µM; in the data set on DU-145, 32 µM; in the data set with LNCaP, 16.8 µM; in the data set on VCaP it was 38.7 µM. The solubility entry in data set [1] and in data set [2] was “Soluble” in each case.

As for `CC(O)(CS(=O)(=O)c1cccc(C(F)(F)F)c1)C(=O)Nc1ccc(C#N)c(C(F)(F)F)c1` (stereo unspecified), the IC50 in the data set with CWR22R was 21 µM; in the data set on DU-145 it was 39.1 µM; with LNCaP, 14.9 µM; in the data set with VCaP, 39.7 µM. For the same compound, the solubility result in data set [1] and in data set [2] was “Soluble” in each case.

`CC(O)(CS(=O)(=O)c1ccc(F)cc1F)C(=O)Nc1ccc([N+](=O)[O-])cc1C(F)(F)F` (stereo unspecified): the concentration for half-maximal inhibition (IC50) in the data set with CWR22R came to 30.2 µM; in the data set with DU-145 it was 46.6 µM; with LNCaP it was 17.9 µM; in the data set with VCaP it was 58 µM. The solubility result in data set [1] and in data set [2] was “Soluble” throughout.

Take `CC1(C)C(=O)N(c2ccc(C(F)(F)F)cc2)C(=O)N1c1cccc(C(F)(F)F)c1`: the IC50 turned out to be 100 µM with CWR22R, 100 µM in the data set with DU-145, 5.95 µM with LNCaP and 72.4 µM in the data set on VCaP. The solubility entry in data set [1] and in data set [2] was “Soluble” throughout.

`CC(O)(CS(=O)(=O)c1ccc(F)c(F)c1)C(=O)Nc1ccc([N+](=O)[O-])cc1C(F)(F)F` (stereo unspecified): the IC50 stood at 33.6 µM with CWR22R, 48.1 µM in the data set on DU-145, 19.5 µM in the data set with LNCaP and 37.3 µM with VCaP. Besides, the solubility result in data set [1] and in data set [2] was “Soluble” in each case.

Consider `CC1(C)C(=O)N(c2cccc(C(F)(F)F)c2)C(=O)N1c1ccc([N+](=O)[O-])c(C(F)(F)F)c1`, for which the half-inhibitory concentration (IC50) in the data set on CWR22R came out at 100 µM; with DU-145, 100 µM; with LNCaP it was 15.2 µM; in the data set on VCaP, 100 µM. The solubility entry in data set [1] and in data set [2] was “Soluble” throughout.

On to `CC(O)(COc1ccc(C#N)cc1)C(=O)Nc1ccc(C#N)cc1C(F)(F)F` (stereo unspecified), for which the half-inhibitory concentration (IC50) with CWR22R came out at 42.9 µM; in the data set with DU-145 it was 100 µM; with LNCaP, 34.7 µM; with VCaP it was 61.4 µM. Moreover, the solubility result in data set [1] and in data set [2] was “Soluble” throughout.

For `CC(O)(CSc1ccc(C(F)(F)F)cn1)C(=O)Nc1ccc([N+](=O)[O-])cc1C(F)(F)F` (stereo unspecified), the 50% inhibitory concentration (IC50) in the data set on CWR22R worked out at 13.6 µM; in the data set on DU-145 it was 19.7 µM; with LNCaP, 11.1 µM; in the data set with VCaP, 17.2 µM. For the same compound, the solubility result in data set [1] and in data set [2] was “Soluble” each time.

Take `CC(O)(COc1ccc(F)c(F)c1)C(=O)Nc1ccc(C#N)cc1C(F)(F)F` (stereo unspecified): the IC50 worked out at 37 µM with CWR22R, 41.9 µM in the data set on DU-145, 34.8 µM with LNCaP and 47.2 µM in the data set on VCaP. The solubility entry in data set [1] and in data set [2] was “Soluble” each time.

Consider `CC(O)(CSc1ccccc1C(F)(F)F)C(=O)Nc1ccc(C#N)cc1C(F)(F)F` (stereo unspecified), for which the IC50 amounted to 11.6 µM in the data set on CWR22R, 18.4 µM in the data set on DU-145, 10.7 µM in the data set on LNCaP and 18.3 µM with VCaP. The solubility result in data set [1] and in data set [2] was “Soluble” in each case.

As to `CC(O)(CSc1ccc(C(F)(F)F)cc1)C(=O)Nc1ccc(C#N)cc1C(F)(F)F` (stereo unspecified), the solubility entry in data set [1] and in data set [2] was “Soluble” each time.
